Key:
db/db mice [1] = assay: Multiple administration experiment on db/db mice; assay type: in vivo; conditions: db/db mice, s.c. every 3 days for 4 weeks, Mean±SEM, 6 mice
Method: "Minimum effective dose" as disclosed in the present invention refers to the minimum administration dose at which the drug effect is produced.
"Efficacy dose" as disclosed in the present invention refers to the administration dose at which the drug effect is produced.
In this study, 7-8 week old male db/db mice were used. The db/db mice were placed in an individual ventilated cage (IVC) facility with a controlled temperature (20-26°C) and humidity (40-70%) and a controlled 12:12 h light-dark cycle. The mice received food and water ad libitum. Blood were sampled at the tail tip, and the base blood glucose was measured by a Roche blood glucose meter. The mice were randomly divided into groups according to the initial blood glucose and initial body weight (n=6/group), and each group had similar body weight and blood glucose.
The mice were subcutaneously administrated every 3 days for 4 weeks. Subcutaneous administration was conducted on days 1, 4, 7, 10, 13, 16, 19, 22 and 25. Random blood glucose was recorded every 3 days throughout the study. On day 28, the fasting blood glucose was measured. Then the blood was collected by orbital blood sampling. After the orbital blood sampling, the animals were sacrificed, and the liver was taken and weighed. After 1 to 2 hours, the collected blood was centrifuged at 3000 rpm for 10 min to separate the serum. Biochemical indicators such as triglyceride (TG), alanine aminotransferase (ALT), and total bilirubin (TBIL) were determined with a biochemical analyzer. The data results were statistically analyzed using GraphPad Prism8, and the statistical differences among the groups were analyzed following T-Test. Significant differences were identified at p<0.05.

db/db mice [2] = assay: Pharmacodynamic effects in db/db mice, single subcutaneous administration (blood glucose); assay type: in vivo; conditions: single s.c. 10 nmol/kg; for Hypoglycemic Duration: Group 2, longest time with p<0.05 vs. vehicle
Outline: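 Male db/db mice aged 8-9 weeks, fed ad libitum, were grouped by initial glucose and body weight (n=6) and dosed once subcutaneously. Random blood glucose from tail tip was tracked over 0 to 120 hours against vehicle. Hypoglycemic duration is the longest time with a significant difference from vehicle (T-test, p<0.05).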

[3] = Pharmacokinetics in cynomolgus monkeys; conditions: cynomolgus monkey, in vivo, sc
Method: After subcutaneous or intravenous administration to cynomolgus monkeys, plasma was collected and the drug concentration in plasma was determined to illustrate the in vivo pharmacokinetic properties of the compound according to the present invention. […] 70.0 µL of thawed plasma sample was taken. 70 µL of acetonitrile (containing 1 ng/ml of the internal standard) was added to precipitate protein. […] The mixture was vortexed for 5 minutes. 10 µL of the mixture solution was sampled and injected into the LC-MS/MS to determine the drug concentration in plasma. […] Table 9 Average Pharmacokinetic Parameters after Single Subcutaneous Administration to Cynomolgus Monkeys

human GLP-1R = human GLP-1R (Homo sapiens, UniProt P43220); assay: In vitro binding activity to human GLP-1 receptor ([125I]GLP-1 displacement, crude cell membranes); design: expressed in transfected cells; conditions: ratio of the Ki value of the endogenous ligand to the Ki value of the test compound; larger ratio = stronger binding
human GLP-1R, sequence (P43220 24-463): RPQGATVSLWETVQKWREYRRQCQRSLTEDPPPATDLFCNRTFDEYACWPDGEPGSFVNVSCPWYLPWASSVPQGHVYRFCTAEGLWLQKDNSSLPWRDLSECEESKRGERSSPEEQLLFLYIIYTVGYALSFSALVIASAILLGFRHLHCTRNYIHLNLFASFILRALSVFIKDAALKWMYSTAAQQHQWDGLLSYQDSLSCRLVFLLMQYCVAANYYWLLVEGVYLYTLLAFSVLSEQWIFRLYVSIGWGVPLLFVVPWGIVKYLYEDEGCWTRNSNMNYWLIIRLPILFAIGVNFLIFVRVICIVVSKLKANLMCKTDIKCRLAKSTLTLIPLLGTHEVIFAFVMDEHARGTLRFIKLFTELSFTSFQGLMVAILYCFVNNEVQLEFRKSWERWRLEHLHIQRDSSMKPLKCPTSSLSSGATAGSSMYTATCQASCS

| SMILES | AUC 4-25 day Glu (db/db mice [1]; 3 nmol/kg) [mmol·days/L] | D28 FBG(Fasting Blood Glucose) (db/db mice [1]; 3 nmol/kg) [mmol/L] | Liver Weight (db/db mice [1]; 3 nmol/kg) [g] | Serum ALT (db/db mice [1]; 3 nmol/kg) [U/L] | Serum TBIL (db/db mice [1]; 3 nmol/kg) [µmol/L] | Serum TG (db/db mice [1]; 3 nmol/kg) [mmol/L] | AUC 4-25 day Glu (db/db mice [1]; 10 nmol/kg) [mmol·days/L] | D28 FBG(Fasting Blood Glucose) (db/db mice [1]; 10 nmol/kg) [mmol/L] | Liver Weight (db/db mice [1]; 10 nmol/kg) [g] | Serum ALT (db/db mice [1]; 10 nmol/kg) [U/L] | Serum TBIL (db/db mice [1]; 10 nmol/kg) [µmol/L] | Serum TG (db/db mice [1]; 10 nmol/kg) [mmol/L] | AUC 4-25 day Glu (db/db mice [1]; 30 nmol/kg) [mmol·days/L] | D28 FBG(Fasting Blood Glucose) (db/db mice [1]; 30 nmol/kg) [mmol/L] | Liver Weight (db/db mice [1]; 30 nmol/kg) [g] | Serum ALT (db/db mice [1]; 30 nmol/kg) [U/L] | Serum TBIL (db/db mice [1]; 30 nmol/kg) [µmol/L] | Serum TG (db/db mice [1]; 30 nmol/kg) [mmol/L] | Hypoglycemic Duration (db/db mice [2]) [h] | Tmax [3] [h] | further results |
| --- | --- | --- | --- | --- | --- | --- | --- | --- | --- | --- | --- | --- | --- | --- | --- | --- | --- | --- | --- | --- | --- |
| CC[C@H](C)[C@H](NC(=O)C(C)(C)NC(=O)[C@H](Cc1ccc(O)cc1)NC(=O)[C@H](CC(=O)O)NC(=O)[C@H](CO)NC(=O)[C@@H](NC(=O)C(C)(Cc1ccccc1)NC(=O)[C@@H](NC(=O)CNC(=O)[C@H](CCC(=O)O)NC(=O)C(C)(C)NC(=O)[C@@H](N)Cc1ccc(O)cc1)[C@@H](C)O)[C@@H](C)O)C(=O)NC(C)(C)C(=O)N[C@@H](CC(C)C)C(=O)N[C@@H](CC(=O)O)C(=O)N[C@@H](CCCCN)C(=O)N[C@@H](CCC(N)=O)C(=O)N[C@@H](C)C(=O)N[C@@H](CCC(N)=O)C(=O)N[C@@H](C)C(=O)N[C@@H](CCC(=O)O)C(=O)N[C@@H](Cc1ccccc1)C(=O)N[C@H](C(=O)N[C@@H](CCCCN)C(=O)N[C@@H](Cc1c[nH]c2ccccc12)C(=O)N[C@@H](CC(C)C)C(=O)N[C@@H](CC(C)C)C(=O)N[C@@H](CCCCNC(=O)COCCOCCNC(=O)COCCOCCNC(=O)CC[C@H](NC(=O)CCCCCCCCCCCCCCCCCCCCC(=O)O)C(=O)O)C(=O)NCC(=O)NCC(=O)N1CCC[C@H]1C(=O)N[C@@H](CO)C(=O)N[C@@H](CO)C(=O)NCC(=O)N[C@@H](C)C(=O)N1CCC[C@H]1C(=O)N1CCC[C@H]1C(=O)N1CCC[C@H]1C(=O)N[C@@H](CO)C(=O)N[C@@H](CCCCN)C(N)=O)C(C)C (stereo partly drawn) [Compound P017] | 303.78 ± 33.24 | 11.68 ± 1.7 | 2.14 ± 0.08 | 105.16±7.1 | 0.88 ± 0.26 | 1.58 ± 0.17 | 249.65 ± 47.65 | 11.95 ± 2.51 | 2.11 ± 0.09 | 141.65±12.72 | 1.59 ± 0.07 | 1.19 ± 0.05 | 294.96 ± 11.96 | 10.08 ± 0.79 | 2.35 ± 0.09 | 176.48±51.6 | 1.11 ± 0.1 | 1.09 ± 0.06 | 72 | 48 ± 24 | half-life [3]: 44.3 ± 4.8 h; GLP-1R Ki ratio (human GLP-1R): 0.56 |
| CC[C@H](C)[C@H](NC(=O)C(C)(C)NC(=O)[C@H](Cc1ccc(O)cc1)NC(=O)[C@H](CC(=O)O)NC(=O)[C@H](CO)NC(=O)[C@@H](NC(=O)C(C)(Cc1ccccc1)NC(=O)[C@@H](NC(=O)CNC(=O)[C@H](CCC(=O)O)NC(=O)C(C)(C)NC(=O)[C@@H](N)Cc1ccc(O)cc1)[C@@H](C)O)[C@@H](C)O)C(=O)NC(C)(C)C(=O)N[C@@H](CC(C)C)C(=O)N[C@@H](CC(=O)O)C(=O)N[C@@H](CCCCN)C(=O)N[C@@H](CCC(N)=O)C(=O)N[C@@H](C)C(=O)N[C@@H](CCC(N)=O)C(=O)N[C@@H](C)C(=O)N[C@@H](CCC(=O)O)C(=O)N[C@@H](Cc1ccccc1)C(=O)N[C@H](C(=O)N[C@@H](CCCCN)C(=O)N[C@@H](Cc1c[nH]c2ccccc12)C(=O)N[C@@H](CC(C)C)C(=O)N[C@@H](CC(C)C)C(=O)N[C@@H](CCCCNC(=O)COCCOCCNC(=O)COCCOCCNC(=O)COCCOCCNC(=O)CC[C@H](NC(=O)CCCCCCCCCCCCCCCCCCCCC(=O)O)C(=O)O)C(=O)NCC(=O)NCC(=O)N1CCC[C@H]1C(=O)N[C@@H](CO)C(=O)N[C@@H](CO)C(=O)NCC(=O)N[C@@H](C)C(=O)N1CCC[C@H]1C(=O)N1CCC[C@H]1C(=O)N1CCC[C@H]1C(=O)N[C@@H](CO)C(=O)N[C@@H](CCCCN)C(N)=O)C(C)C (stereo partly drawn) [Compound P020] | 268.28 ± 24.64 | 9.6 ± 1.32 | 2.03 ± 0.09 | 214.56±43.83 | 1.54 ± 0.25 | 1.37 ± 0.12 | 290.78 ± 27.25 | 10.7 ± 1.62 | 2.09 ± 0.1 | 113.48±24.18 | 0.91 ± 0.05 | 1.07 ± 0.03 | 184.18 ± 22.44 | 8.22 ± 1.07 | 1.83 ± 0.16 | 112.47±16.69 | 0.95 ± 0.28 | 1.2 ± 0.07 | 104 | 22.7 ± 10.1 | inhibition of the blood glucose AUC, times of that of Tirzepatide (db/db mice [2]): 2.0 times; half-life [3]: 67.4 ± 9.47 h; GLP-1R Ki ratio (human GLP-1R): 1.36 |
